Data set [1] has as its system Kainic acid lesion in C57BL/6 mice. Put plainly: Mouse model of acute neurodegeneration: kainic acid lesion volume. As to conditions: KA 1.0 nmol i.s.; clotrimazole 2 mg/kg i.p. twice daily; vs KA+vehicle; P=0.010 (t test of difference in log[size]); two days after KA. The format is in vivo. The protocol: To test the hypothesis that clotrimazole may be neuroprotective against KA induced excitatory damage in the brain, clotrimazole was compared to benzamide as a positive control in the mouse model. Three study groups (n=8-9) were tested: (1) C57BL/6 treated with KA 1.0 nmol (i.s.) left hemisphere+vehicle (i.p.); (2) KA 1.0 nmol i.s. left hemisphere+clotrimazole (2mg/kg) i.p. twice daily for duration of the study (including a single dose 1 hour before KA); and (3) KA 1.0 nmol i.s. left hemisphere+benzamide (160 mg/kg, i.p. 30 min before injection and 3.5 hrs after). Kainic Acid (K0250), clotrimazole (C6019) and Benzamide (150762) were purchased from Sigma and prepared as followed: Kainic Acid was dissolved in phosphate buffered saline (1×PBS, pH 7.4), pH to 7.4 using NaOH. […]
Two days after injection of KA the animals were anesthetized and transcardially perfused with ice cold phosphate buffered saline (0.1 M PBS, pH 7.4) containing 10% sucrose and then perfused with ice-cold 4% paraformaldehyde in 0.1M PBS, pH 7.4. […] The area of the lesion, indicated by the lack of staining when compared to the contralateral (intact) striatum/cortex, was measured in each series of sections (n=25-30) blindly by means of an image analysis program and the lesion volume was calculated by a stereological method (Cavalieri's estimator of volume corrected for over projection).

The test system of the next data set is R6/2 mice. As to the kind of experiment: Gait analysis (DigiGait) in R6/2 mice. The format is in vivo, mouse. The text has this: Gait analysis was also collected at 12 weeks, which is a time when clear differences have previously been described between R6/2 and wild-type. In this analysis, the DigiGait™ Imaging System, which is non-invasive, robust, and quantitative—in that it generates numerous indices of gait dynamics and posture—was used. The system simplifies kinematic observations and analyses by imaging the animals from below a transparent treadmill. Software, including artificial intelligence algorithms, quantifies the characteristics of gait, including step sequence patterns, stride length, cadence, and paw placement. The output also includes swing and stance durations, as well as braking and propulsion durations. Indices computed by DigiGait convey information about sensory and motor inputs modulating gait and gait variability.

A further data set concerns R6/2 transgenic mice. Put plainly: Body weight in R6/2 transgenic mouse model of Huntington's disease. The format is in vivo. The protocol:
The rotarod test and body weight measurements were used to assess the therapeutic effects of clotrimazole in R6/2 transgenic mice. R6/2 and WT male mice at 4 weeks of age were trained 3 consecutive days on the accelerating rotarod. Each training day consisted of four sessions. After the training was complete, the animals were reassigned to new groups to create statistically homogenous cohorts. At 5 weeks of age, animals (n=10 per group) were dosed twice daily, intraperitoneally (IP) with clotrimazole at either 2 mg/kg or 10 mg/kg (equal to 4 and 20 mg/kg per day). Rotarod testing was performed at 6, 8, 10, and 12 weeks of age as described above. Body weights were collected every week.

The conditions of data set [2]: cited from earlier work.

Take `Clc1ccccc1C(c1ccccc1)(c1ccccc1)n1ccnc1` [clotrimazole]: the Lesion volume entry in data set [1] was “statistically significant improvement”. In addition, the “Motor performance by gait analysis” value in the data set on R6/2 mice (4 and 20 mg/kg dosing, preliminary data) is reported as “significantly improved the motor performance”. Also, the Swing ratio score entry in the data set with R6/2 mice (gait analysis at 12 weeks) was “significantly improved”. The “Body weight compared to vehicle-treated R6/2 mice” value in the data set on R6/2 transgenic mice (4 mg/kg IP-BID, 12 week of age, F test ANOVA) is on record as “maintained a higher body weight”. In addition, the Body weight effect result in the data set on R6/2 transgenic mice (20 mg/kg IP-BID, any time point tested) is recorded as “did not have a statistically significant effect”. Further, the Weight in vivo result in the data set on R6/2 transgenic mice (low dose of 4 mg/kg/day, preliminary data) was “positively affects”. Moreover, the “Known side effects in humans” value in data set [2] was “lethargy, apathy, and weakness”.

Values taken from patent publication US20070037800A1, “Method of treating neurological disorders using clotrimazole and derivatives thereof” (EnVivo Pharmaceuticals, Inc., priority 2005, published 2007).
